According to US11160788B2, “Caspase-1 inhibition and uses thereof for prevention and treatment of neurological conditions” (priority 2016, dated 2021):
Entries after “also recorded” stand apart in the source; their conditions may differ.

Assays:
recombinant human Casp1 = biological target: T1, recombinant human Casp1 (Homo sapiens, UniProt P29466); assay: Caspase inhibition IC50, recombinant human Casp1; assay type: biochemical; settings: read-out: IC50 against human Casp1
T1 sequence (P29466 120-297 limits assumed): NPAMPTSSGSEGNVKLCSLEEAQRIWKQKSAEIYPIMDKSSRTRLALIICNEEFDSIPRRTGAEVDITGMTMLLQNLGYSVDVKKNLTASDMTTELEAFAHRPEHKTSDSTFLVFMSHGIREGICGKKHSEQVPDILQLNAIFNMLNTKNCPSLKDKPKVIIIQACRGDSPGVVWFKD
T1 sequence (P29466 317-404 limits assumed): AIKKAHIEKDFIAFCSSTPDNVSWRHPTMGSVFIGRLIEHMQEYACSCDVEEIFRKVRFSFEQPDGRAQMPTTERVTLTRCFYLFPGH
Experimental: (§1) FIG. 14: Selectivity and blood brain permeability of VX-765 and VRT-043198. (a-b) IC50 of VX-765 (a) and VRT-043198 (b) against human Casp1-10. (c-d) IC50 of VX-765 (c) and VRT-043198 (d) against mouse Casp1 and Casp11. (e) Blood brain barrier permeability and presence of VX-765 and VRT-043198 in 3 wild type and 4 J20 mice brain cortex and hippocampus and in plasma. Ratios of brain levels to plasma levels are calculated.

mouse recombinant Casp1 = biological target: T2, mouse recombinant Casp1 (Mus musculus, UniProt P29452); assay: Caspase inhibition IC50, mouse recombinant Casp1; assay type: biochemical; settings: read-out: IC50 against mouse Casp1
T2 sequence (P29452 119-296 limits assumed): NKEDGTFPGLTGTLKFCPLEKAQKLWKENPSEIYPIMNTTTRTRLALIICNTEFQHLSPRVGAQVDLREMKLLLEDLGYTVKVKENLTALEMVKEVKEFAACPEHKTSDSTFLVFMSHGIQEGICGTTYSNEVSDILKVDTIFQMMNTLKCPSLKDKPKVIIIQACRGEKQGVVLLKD
T2 sequence (P29452 315-402 limits assumed): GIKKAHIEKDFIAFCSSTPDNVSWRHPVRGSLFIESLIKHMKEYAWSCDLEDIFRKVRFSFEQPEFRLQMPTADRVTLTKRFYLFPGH
Experimental: as §1

human Casp2 to 10 = assay: Selectivity against human Casp2 to 10; assay type: biochemical; settings: recombinant caspases
Experimental: as §1

[1] = Blood brain barrier permeability, brain and plasma levels; assay type: in vivo, mouse; settings: WT and J20 mice
Experimental: as §1

J20 mice [2] = assay: Iba1 microglia immunohistochemistry, treated symptomatic J20 mice brains; assay type: in vivo, mouse
Description: FIG. 10: VX-765 reverses neuroinflammation in J20 mice. (a) Iba-1 positive microglia immunohistographs in the stratum lacunosum molecular area of the hippocampus and S1 of cortex (Scale bar=50 μm). (b) Stereological quantification of Iba-1^+ microglia for WT+Vehicle (n=6), J20+Vehicle (n=5), and J20+VX-765 (n=4) in the hippocampus from the pyramidal cell layer to the stratum lacunosum molecular layer (F(2,11)=58, p<0.0001) and cortex (F(2,11)=39.95, p<0.0001, ANOVA, Dunnett's post-hoc compared to J20+Vehicle, ***p<0.001). (c) Average percentage distribution of morphological microglial subtypes 1 (black (lowermost) bar), 2 (light grey bar), 3 (dark grey bar) and 4 (black (uppermost) bar). (d) II1-β pg/mg levels measured by ELISA in pre-treated J20 at 5 months of age and in treated WT and J20 8 months of age. (e) Astroglial GFAP^+ immunohistographs.
To assess AD-like pathology, immunohistochemical analyses were performed to detect amyloid deposition (anti-AβF25276)^5,6, microglial (Iba1) activation^7, astrogliosis (GFAP), synaptophysin protein levels on coronal brain sections. Multiplex MSD ELISA was used to assess Aβ levels and 38,40, and 42 subtypes, and II-1β brain levels. RT-PCR was used to assess levels of human APP^Sw/Ind.

J20 mice [3] = assay: Open field, preventive treatment of pre-symptomatic J20 mice; assay type: in vivo, mouse
Experimental: FIG. 21: Open-field assessment to assess hyperactivity in J20 mice. Mice were treated with vehicle (WT and J20) or 50 mg/kg VX-765 (J20) at 2 months of age for 1 month (3 injections per week×4 weeks=12 injections). Hyperactivity was assessed by measuring the distance travelled (a), the number of quadrant entries (b), and the % time moving (c), while anxiety was assessed by the % time spent in periphery (d).
Studies are done on 8 (pre-symptomatic) week old J20 and littermate WT controls injected with 50 mg/Kg VX-765 or vehicle. The 8 week old mice are injected for 4 weeks (3 injections per week) and monitored for memory deficits at 16 weeks of age and every 4 weeks thereafter until the mice reach 8 months of age. VX-765 delays the onset of cognitive deficits by at least 5 months in the J20 mouse.
We directly tested whether pre-symptomatic inhibition of inflammation in a mouse genetic model of Alzheimer disease can stem the progression of memory and behavioral deficits, and Alzheimer disease-like pathology. The J20 amyloid precursor protein Swedish/Indiana mutant mouse was treated at 2 months of age for a one month period with 50 mg/Kg Caspase-1 inhibitor VX-765 (FIG. 22a).

[4] = tested on: CNS primary human neurons (HPN); assay: MTT assay in primary human neurons; assay type: cell-based; settings: 25, 50, 100, or 200 μM for 72 hours
Experimental: FIG. 13: VX-765 protects CNS primary human neurons (HPN) against APP- or serum deprivation-mediated neuritic beading. (a) MTT assay with increasing dose of VX-765. (b) Fluorescent micrographs showing homogeneous distribution of EGFP in normal neurons and neuritic beading in APP-transfected neurons. (c) Percentage beading in APP-transfected or serum-deprived neurons treated 1 h before and continuously with stressor (Pre-treatment) or 48 h after stressor (post-beading treatment) with 25 or 50 μM VX-765 or with 5 μM Z-YVAD-fmk Casp1 peptide inhibitor. […] (d-e) HPN secreted or cellular Aβ42/total Aβ38+40+42 (d) (F(3,4)=12.73, p=0.0163, ANOVA, Dunnett's post-hoc compared to Serum+DMSO, *p<0.05), and (e) levels of secreted II-1β, IFN-γ, TNF-α, and II-6 from untreated (+S), serum deprived (−S), or serum-deprived human neurons treated with 25 or 50 μM VX-765.
To determine if VX-765 can protect human neurons against neurodegeneration, VX-765 was assessed in primary human fetal CNS neuron cultures. Treatment of HPN with 25, 50, 100, or 200 μM VX-765 for 72 hours was not toxic (FIG. 13a). […] HPN were pre-treated with VX-765 for 1 h before APP transfection and treatment continued thereafter. […] To assess if neuritic beading was reversible, VX-765 was administered 48 hours after APP^WT transfection or serum deprivation.

Question: With CCO[C@@H]1OC(=O)C[C@@H]1NC(=O)[C@@H]1CCCN1C(=O)[C@@H](NC(=O)c1ccc(N)c(Cl)c1)C(C)(C)C [VX-765, (S)-1-((S)-2-{[1-(4-amino-3-chloro-phenyl)-methanoyl]-amino}-3,3-dimethyl-butanoyl)-pyrrolidine-2-carboxylic acid ((2R,3S)-2-ethoxy-5-oxo-tetrahydro-furan-3-yl)-amide] as the compound, how does the IC50 (recombinant human Casp1) read?
Answer: Its IC50 is 3.68 nM.

Question: What about the IC50 (mouse recombinant Casp1) of the same compound?
Answer: The IC50 was 52.1 nM.

Question: What about the “inhibition of human Casp1 relative to human Casp2 to 10” value (human Casp2 to 10) of the same compound?
Answer: Its value is “potently and specifically inhibited”.

Question: And the “blood brain barrier crossing” value [1]?
Answer: The value was “crossed the blood brain barrier”.

Question: And the “concentrations in hippocampus and cortex” value [1]?
Answer: Its value is “reached physiologically active concentrations”.

Question: And the “metabolism of the pro-drug” value [1]?
Answer: Its value is “metabolized into VRT-043198”.

Question: What about the “Iba1-positive microglia in hippocampus CA1” value (J20 mice [2]; 50 mg/kg, 12 injections, 8 month old J20) of the same compound?
Answer: The value was “normalized; also recorded: reduced to WT levels”.

Question: And the “number of Iba1+ microglia, pyramidal cell layer to stratum lacunosum molecular layer of CA1” value (J20 mice [2]; 50 mg/kg, after Treatment 3, stereological quantification)?
Answer: Its value is “returned to normal”.

Question: And the “microglial activation measured morphologically” value (J20 mice [2]; hippocampus and cortex, vs vehicle-treated J20)?
Answer: The value was “more resting, and less activated, microglia”.

Question: What about the “open field hyperactivity (distance travelled, quadrant entries)” value (J20 mice [3]; 4 months of age (4 week washout)) of the same compound?
Answer: The value was “normal behavior at 4 months of age; also recorded: behave as the vehicle-treated WT mice”.

Question: And the open field hyperactivity (J20 mice [3]; 5 months of age (8 week washout) and thereafter)?
Answer: Its open field hyperactivity is “hyperactivity returned by 5 months of age; also recorded: lost at the 8 week washout assessment and thereafter”.

Question: And the “% time of movement” value (J20 mice [3]; 8 week to 20 week washout)?
Answer: The value was “did not alter”.

Question: And the “toxicity (MTT assay)” value [4]?
Answer: The value was “not toxic”.
